Values joined by “and” are separate entries in the source; they are usually repeats but may differ in a detail not shown here. Identical values can stand only once.
What was measured:
[1] = Passive avoidance anxiolytic model (shuttlebox, latency to cross); type: in vivo; settings: for Latency to Cross, Mean / Latency to Cross, individual animals: Table II
From the text: The passive avoidance test consists of an acquisition and a retention trial. On the day prior to dosing, the animal is placed into the shuttlebox and allowed to acclimate. A conditioned stimulus (light) is presented for approximately 100 seconds. When the animal crosses to the dark compartment, a mild (0.5 mA) footshock is presented until the animal returns to the lighted compartment or for approximately 10 seconds. Animals failing to cross during acquisition trial is randomly replaced. The day following acquisition, animals are administered test article, saline or flurazepam 10 minutes prior to being placed in the shuttlebox and tested for retention as described above. Latency to cross (in seconds) is recorded.

[2] = molecular target: NAALADase (Homo sapiens, UniProt Q04609); assay: In vitro inhibition of NAALADase activity; type: biochemical
Sequence of NAALADase (Q04609 whole entry): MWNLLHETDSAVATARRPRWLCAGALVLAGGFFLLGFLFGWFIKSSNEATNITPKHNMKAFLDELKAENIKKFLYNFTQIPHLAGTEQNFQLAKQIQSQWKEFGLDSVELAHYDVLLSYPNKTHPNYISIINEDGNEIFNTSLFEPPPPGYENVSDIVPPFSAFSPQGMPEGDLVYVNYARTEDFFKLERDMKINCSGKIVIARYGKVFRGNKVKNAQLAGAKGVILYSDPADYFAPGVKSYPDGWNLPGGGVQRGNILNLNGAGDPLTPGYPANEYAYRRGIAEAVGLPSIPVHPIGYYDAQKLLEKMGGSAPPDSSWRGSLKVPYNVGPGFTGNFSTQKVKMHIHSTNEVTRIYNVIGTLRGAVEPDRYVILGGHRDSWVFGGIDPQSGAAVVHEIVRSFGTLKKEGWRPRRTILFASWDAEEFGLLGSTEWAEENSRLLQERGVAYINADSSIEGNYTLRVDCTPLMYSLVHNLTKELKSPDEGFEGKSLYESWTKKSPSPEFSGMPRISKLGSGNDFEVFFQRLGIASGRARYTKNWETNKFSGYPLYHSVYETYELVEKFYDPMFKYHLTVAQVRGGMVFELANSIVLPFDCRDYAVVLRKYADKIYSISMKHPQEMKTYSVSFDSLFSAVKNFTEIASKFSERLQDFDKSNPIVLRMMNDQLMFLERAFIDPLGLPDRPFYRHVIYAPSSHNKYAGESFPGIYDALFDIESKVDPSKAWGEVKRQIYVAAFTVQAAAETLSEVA

O=C(O)CCC(CCS)C(=O)O (stereo not drawn) [Compound 1, 2-(2-sulfanylethyl)pentanedioic acid]
anxiolytic properties in passive avoidance ([1]; Example 14): exhibit anxiolytic properties
performance compared with flurazepam in passive avoidance ([1]; Example 14, in some experiments): performed better than the known anxiolytic agent, flurazepam
Latency to Cross, Mean ([1]; Compound 1 1 mg/kg PO): 34.8 s
Latency to Cross, individual animals ([1]; Compound 1 1 mg/kg PO, 1 mg/kg): 5.9 seconds and 15.8 seconds and 28.4 seconds and 30.3 seconds and 100.0 seconds (3×) and 12.3 seconds and 27.9 seconds and 23.5 seconds and 3.9 seconds and 13.1 seconds and 0.2 seconds and 41.3 seconds and 20.1 seconds
Latency to Cross, Mean ([1]; Compound 1 10 mg/kg PO): 23.6 s
Latency to Cross, individual animals ([1]; Compound 1 10 mg/kg PO, 10 mg/kg): 1.8 s and 28.5 s and 64.1 s and 3.2 s and 14.7 s and 10.3 s and 3.3 s and 24.6 s and 9.4 s and 100.0 s and 22.7 s and 6.6 s and 14.0 s and 38.8 s and 12.1 s
Latency to Cross, Mean ([1]; Compound 1 100 mg/kg PO): 18.0 s
Latency to Cross, individual animals ([1]; Compound 1 100 mg/kg PO, 100 mg/kg): 15.0 s and 19.2 s and 5.6 s and 19.3 s and 6.2 s and 55.7 s and 25.5 s and 21.5 s and 6.6 s and 15.1 s and 8.4 s and 17.4 s and 0.5 s and 0.7 s and 52.8 s
Ki [2]: 510 nM

From US6376478B1, “Pharmaceutical compositions and methods for treating anxiety, anxiety disorders and memory impairment using naaladase inhibitors” (Guilford Pharmaceuticals Inc., priority 1999, dated 2002)
